This note sets out measurements from patent US11506670B2, “Method of genome-wide direct identification of electrophile-sensing targets” (Cornell University, priority 2018, dated 2022).

Experiment [1] concerns NF-κB-signaling (Ube2V1). Nature of the experiment: NF-κB dual luciferase reporter assay after T-REX on Halo-Ube2V1. Format: cell-based, human. The following applies: T-REX HNEylation of Ube2V1, coexpression of Ube2N. The method, then: (§1) 1.5-1.6×10^5 HEK 293T cells were seeded in each well of a 48-well plate. 24 h later, the cells were transfected with 120 ng of the designated HaloTag fusion gene plasmid and 120 ng of NF-kB-Firefly luciferase: pCMV-Renilla luciferase (40:1) mix, using TransIT-2020 transfection agent. 24 h post-transfection, cells were treated with 25 μM Ht-PreHNE or vehicle (corresponding volume of DMSO alone) for 2.5 h, rinsed three times and irradiated with 365 nm UV light for 10 min. The cells were incubated for a further 8 h. For dual luciferase assay, cells in each well were gently washed with 1×DPBS and lysed in 65 μL of 1× passive lysis buffer containing in final concentrations 25 mM Tris (pH 7.8), 2 mM 1,2-CDTA, 2 mM DTT, 1 mg/mL BSA, 1% Triton X-100, and 10% Glycerol. 20 μL of the lysate was transferred to a white opaque 96-well plate (Corning). Firefly luciferase was read after adding 50 μL Firefly substrate (75 mM HEPES pH 8.0, 4 mM MgSO4, 20 mM DTT, 0.1 mM EDTA, 0.53 mM ATP, 0.27 mM Coenzyme-A, 0.47 mM D-Luciferin Firefly). Subsequently, 50 μL of Stop and Glow substrate (7.5 mM sodium acetate pH 5.0, 400 mM sodium sulfate, 10 mM CDTA, 15 mM sodium pyrophosphate, 0.025 mM APMBT, 5.5 μM Coelenterazine) was added and Renilla luciferase activity was measured.

For experiment [2], the system named is NF-κB-signaling (Ube2V2). Nature of the experiment: NF-κB dual luciferase reporter assay after T-REX on Halo-Ube2V2. As to conditions: T-REX HNEylation of Ube2V2 in place of Ube2V1. Format: cell-based, human. The method, then: as §1
For experiment [3], the system named is HaloTag-fused proteins of interest (POI). Nature of the experiment: T-REX targeting efficiency by Click coupling, in-gel fluorescence. The following applies: equation of Step 40A (ix). Format: cell-based. The method, then: (i) For mammalian cells, add 15 μL freshly prepared lysis buffer (50 mM Hepes pH 7.6, 0.3 mM TCEP and 1% Nonidet p-40) to mammalian cell pellets from Step 2A above and subject to 3 cycles of freeze-thaw. For E. coli cells, resuspend cell pellet in 100 μL lysis buffer consisting of 50 mM HEPES pH 7.6, 2 mM TCEP, 1% Nonidet p-40, 150 μg/mL Lysozyme, 5 μg/mL DNAse-I. Incubate for 20 min at room temperature with agitation. For mammalian cells make sure the cells are resuspended well in lysis buffer.
(iv) Dilute a portion of the clarified lysate to 1 mg/mL in a final volume of ˜25 μL containing 50 mM Hepes pH 7.6, 0.3 mM TCEP, and 0.2 mg/mL His6-TEV-S219V. Incubate at 37° C. for 45 min. The optimal concentration of lysate protein is ˜1.0 mg/mL. High concentration of lysate protein causes failure of Click coupling. Precipitates may appear upon adding His6-TEV-S219V. […]
(vii) Upon completion of the gel-electrophoresis, rinse the gel with ddH2O 20 mL (×2, 5 min) and analyze for Cy5 signal using a ChemiDoc-MP imaging system (Bio-Rad) (see Equipment Setup). Any alternative fluorescence gel imager platforms can be used in this step. […]
(x) Bio-Rad Image Lab™ software is used to quantitate the intensities of Cy5 signal and western blot signal. […] Click on “Analysis table” to generate the quantitated signal intensities corresponding to selected bands. […]

Experiment [4] has as its target T1, PTEN (Homo sapiens, UniProt P60484).
T1 construct: host or cells: HEK-293
Nature of the experiment: Immunofluorescence of endogenous PIP3 after PTEN-targeted T-REX. It is filed as cell-based. As to conditions: T-REX HNEylation of Halo-PTEN. The method, then:
(i) Transient transfection using TransIT-2020. Split HEK-293 cells in four 35 mm glass-bottom dishes. For each dish, seeding ˜4×10^5 cells in 2.0 mL total cell culture medium should result in cells that are ˜40-50% confluent after 24 h, which represents optimal cell density. Too low and too high cell density may result in excessive cell death or poor transfection efficiency respectively. Higher cell density is also not optimal for imaging.
(ii) Transfect each plate with 2000 ng of Halo-PTEN plasmid. Transfect with TransIT-2020 following the manufacturer's protocol.
(iv) Treatment of cells with T-REX™ delivery photocaged precursor, photo-uncaging and cell fixing (TIMING: 8 hours). Treat the cells with photocaged precursor as described in Section 2, Step 39A.
(v) After shining light on the sample, incubate the plates at 37° C. for 10 hours. […]
(xviii) Images were analyzed using ImageJ software (NIH). Briefly, the average green fluorescence intensity (intensity of signal due to PIP3) for each cell was determined by drawing a free hand circle around the image. This was repeated for each condition such that 50-100 cells were analyzed each time from multiple different frames. A global average of the green fluorescence intensity was calculated for each condition, then these values were plotted and analyzed using prism. […]

T1 sequence (P60484 whole entry): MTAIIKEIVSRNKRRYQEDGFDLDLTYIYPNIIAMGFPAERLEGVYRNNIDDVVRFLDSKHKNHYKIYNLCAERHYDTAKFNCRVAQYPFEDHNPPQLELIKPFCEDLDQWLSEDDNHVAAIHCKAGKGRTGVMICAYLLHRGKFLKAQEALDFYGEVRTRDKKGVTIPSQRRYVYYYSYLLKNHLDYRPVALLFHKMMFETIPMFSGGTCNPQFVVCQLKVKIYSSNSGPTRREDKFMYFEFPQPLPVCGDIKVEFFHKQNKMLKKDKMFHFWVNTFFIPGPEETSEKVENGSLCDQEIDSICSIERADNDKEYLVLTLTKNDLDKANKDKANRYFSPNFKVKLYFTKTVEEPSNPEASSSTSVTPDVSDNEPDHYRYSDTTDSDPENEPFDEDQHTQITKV

In the case of `CCCCCC(O)/C=C/C=O` (stereo not shown) [HNE, 4-hydroxynonenal], the “upregulation in NF-κB-signaling relative to all controls” value in experiment [1] was 3 fold. Moreover, the NF-κB-pathway activation entry in experiment [2] is on record as “did not result in NF-κB-pathway activation”. The targeting efficiency in experiment [3] is recorded as 10-40%. For the same compound, in experiment [4], the “endogenous PIP3 level” value is on record as “upregulation of PIP3”.
